Experimental data taken from publication PMC11874007, “Switching Roles—Exploring Concentration-Dependent Agonistic versus Antagonistic Behavior of Integrin Ligands” (Journal of Medicinal Chemistry, 2025).

Key:
human αvβ6-integrin = target: T1, human αvβ6-integrin (Homo sapiens, UniProt P06756+P18564); settings: previously published values; cited from earlier work
T1 construct: purchased R&D 3817-AV-050

[1] = test system: FAK, p-FAK, p44/42erk-1/2, p-p44/42erk-1/2 in αvβ3+ M21 cells; experiment: Western blot of FAK and p44/42erk-1/2 expression and activation, M21 cells; assay type: cell-based
Experimental: Since agonistic ligand performance requires integrin activation and signaling, by Western blot analysis, we studied whether the different ligands alter the expression levels and activation states of FAK and p44/42^(erk-1/2). For this, the respective target integrin-expressing tumor cell types were incubated with the corresponding subtype-selective ligand at a concentration of 1 μM for 24 h (Figure 8). […] Signal intensities of FAK and p44/42^(erk-1/2) expression and activation (p-FAK and p-p44/42^(erk-1/2)) on Western blots were evaluated by densitometry. Data are depicted as GAPDH-normalized fluorescence signal intensities as n-fold, by setting values obtained for the respective untreated cells to “1”. […] MAPK p44/42^(erk-1/2) expression was approximately 2.2-fold augmented, p44/42^(erk-1/2) by approximately 2.5-fold. It also raised activation of p-FAK and p-p44/42^(erk-1/2) by approximately 2.2-fold and 3.1-fold, respectively, in α5β1+ OV-MZ-6 cells. […] Additionally, it raised FAK (approximately 1.7-fold) and p-p44/42^(erk-1/2) (approximately 2.4-fold) in α5β1+ OV-MZ-6 cells.
Figure 8 Effects of ligands on cellular expression and activation of integrin-related signaling molecules FAK and p44/42^(erk-1/2). […] Signal intensities for FAK and p-FAK, respectively, were evaluated by use of the Bio-Rad Imager Gel Doc XR+ and a ChemiDoc XRS+ Systems and the software Image Lab. Shown are typical representative Western blot images and the corresponding histograms depicting GAPDH-normalized signal intensities as n-fold by setting the values obtained for untreated cells to “1” (drawn as black line). For each cell line, cutouts of identical gels are depicted.
In order to capture early and transient changes in signaling activation following ligand treatment, we next reduced the observation periods to 5, 30, or 60 min and assessed FAK expression and activation. […] Depicted are typical Western blot images and the corresponding densitometrical evaluations of GAPDH-normalized signal intensities as n-fold, by setting that of the respective untreated cell type to “1” (Figure 9). […]
The kinases (p-)p44/42^(erk-1/2) and (p-)FAK were detected as previously published.[15],[8] Briefly, cells were grown for 18 h on six-well plates in DMEM (0.45 Mio cells/well). After medium exchange, fresh medium with L1–L5 (concentration: 1.0 μM, 2 mL/well) was added, and cells were incubated for another 24 h at 37 °C. In a second series, cells were incubated with L1–L5 (1 μM or 1 nM) for 5, 30, or 60 min. Thereafter, the cellular proteins were extracted and processed by Western blotting. Proteins were visualized using the Pierce ECL chemiluminescent substrate (Thermo Fisher Scientific). Band signal intensities for (p-)p44/42^(erk-1/2) and (p-)FAK were evaluated using the Bio-Rad Imager Gel Doc XR + and ChemiDoc XRS + Systems and the software Image Lab. Differences in protein loading and blotting efficiency were normalized by reprobing the membranes with a monoclonal antibody directed to GAPDH. Signal intensities for protein bands of interest were normalized to those recorded for GAPDH. Typical Western blot images are depicted together with histograms summarizing the mean values of normalized fluorescence signal intensities as n-fold, by setting those obtained for untreated cells to “1”.

human αvβ3-integrin = target: T2, human αvβ3-integrin (Homo sapiens, UniProt P05106+P06756); experiment: ELISA-type solid-phase binding assay: soluble αvβ3 competing for immobilized vitronectin; settings: competitive ELISA-type assay, referenced to internal standard cilengitide (L2)
T2 construct: purchased R&D 3050-AV-050

αvβ3+ M21 cells = experiment: Wound scratch cell migration assay, M21 cells; assay type: cell-based
Experimental: As a biological readout for integrin signaling, we analyzed ligand effects on cell adhesion and migration by wound scratch assays (Figure 10A,B). […] Microscopical images were taken directly after wounding the cell monolayers and then after 9, 24, 48, and 72 h, respectively.
Figure 10 (A) Effect of integrin ligands on cancer cell migration. […] Microscopical measurements of wound gaps were taken directly after setting the wound scratch and then after 9, 24, 48, and 72 h, respectively. Wound scratch assays were repeated at least three times. The extent of wound gap closure [%]/cell coverage was calculated by a python script utilizing Canny’s Edge Detection algorithm as described under Materials and summarized in the corresponding histograms (see also Scheme S5 in the Supporting Information). (B) Adhesion of M21, OV-MZ-6, and HN cells in the presence of the respective integrin targeting ligand at low (1 nM) and high (1 μM) concentrations. […] Depicted are typical microscopical images of the respective cell monolayers.
The assays were performed according to a modified protocol as previously published.[94] Cells were cultivated on fibronectin-coated 12-well cell culture plates until cell monolayers reached an approximately 80% confluency. Then, the wound scratch was set utilizing a 200 μL pipet tip. Subsequently, fresh culture medium was added in the absence or presence of L1–L5 (concentration: 1 μM or 1 nM), and microscopical images (Zeiss, Oberkochen, Germany) were taken at two identical positions of the wound gap directly after wounding and then at 9, 24, 48, or 72 h of further cell cultivation. Each wound scratch assay was repeated three times. A custom python script was implemented to analyze wound gap closure over time: after cropping the images, we used the OpenCV[95] implementation of Canny’s Edge Detection Algorithm[96] to ensure reliable measurements even with variable lighting conditions.[97] As a first step, a 5 × 5 Gaussian filter was applied to remove background noise. The smoothened images were then filtered by a Sobel kernel[98] and the magnitude and direction of the intensity gradient of the images calculated. Then, a non-maximum suppression algorithm was applied to identify relevant pixels that presumably contribute to edges. In a final step, threshold hysteresis was utilized to distinguish true edges from variations in intensity or the remaining background noise. The resulting images were then segmented and binarized by use of a grid filter and analyzed with respect to cell-covered area relative to the start image of each series.

| Compound | IC50 (human αvβ6-integrin) | (p-)p-44/42erk-1/2 ([1]; 1 μM, 24 h) | p-FAK levels versus untreated cells ([1]; both concentrations (1 nM, 1 μM), up to 60 min) | IC50 (human αvβ3-integrin) | Effect on wound gap closure / cell migration (αvβ3+ M21 cells; 1 nM) | Effect on wound gap closure / cell migration (αvβ3+ M21 cells; 1 μM) | FAK expression versus untreated cells ([1]; 1 nM, 5, 30 or 60 min) | p-FAK expression ([1]; 1 nM, 5, 30 or 60 min) | FAK expression versus untreated cells ([1]; 1 μM, 5, 30 or 60 min) | FAK expression, n-fold of untreated cells ([1]; 1 μM, 24 h, GAPDH-normalized) | p-FAK expression, n-fold of untreated cells ([1]; 1 μM, 24 h, GAPDH-normalized) | Cell coverage (wound gap closure) (αvβ3+ M21 cells; 1 μM, within 72 h) |
| --- | --- | --- | --- | --- | --- | --- | --- | --- | --- | --- | --- | --- |
| c(FRGDLAFp(NMe)K) [L3] | 0.28 ± 0.019 nM | – | – | – | – | – | – | – | – | – | – | – |
| C#CCCC(=O)NCCCOc1cc(C)c(C(=O)N[C@@H](CNC(=O)CNC(=O)c2cccc(NC(=N)N)c2)C(=O)O)c(C)c1 [L5, (S)-2-(2,6-Dimethyl-4-(3-(pent-4-ynamido)propoxy)benzamido)-3-(2-(3-guanidinobenzamido)acetamido)propanoic Acid] | – | unexpectedly increased | equal or slightly higher than those in untreated cells | > 1000 nM | did not alter their migratory capacity | no abrogation of cell migration was observed | – | – | – | – | – | – |
| C#CCCC(=O)NCCCOc1ccc(C(=O)N[C@H](CC(=O)O)Cc2ccc(OCCCNc3cc(OC)ccn3)cc2)cc1 [L1, (S)-4-(4-(3-((4-Methoxypyridin-2-yl)amino)propoxy)phenyl)-3-(4-(3-(pent-4-ynamido)propoxy)benzamido)butanoic Acid] | – | – | – | 1.1 ± 0.27 nM | enhanced wound gap closure | less effective than cilengitide (L2) in blocking cell migration | transient and slight increase | always prominently higher than that at 1 μM | remained below that in untreated cells | doubled | slightly reduced | approximately 80% |
